Experimental data taken from PMC8698791, “Identification, Synthesis, Conformation and Activity of an Insulin-like Peptide from a Sea Anemone” (Biomolecules, 2021).
Positions of bridges follow the written chain, without caps; N, C: chain ends. Chains are numbered I, II in the order given. No end group written: not given here.

Experiments:
[1] = test system: rKV1.2; test: Two-electrode voltage-clamp on Xenopus oocytes expressing KV1.2; format: cell-based, rat; details: 8 µM peptide, Xenopus laevis oocytes, 18–22 °C, n ≥ 3
Excerpt: (§1) For the expression of KV channels (mammalian rKV1.2, hKV1.3, rKV2.1, hKV3.1, rKV4.2, hKV7.2/hKV7.3, hKV10.1, hERG and Shaker IR from the fruit fly Drosophila melanogaster), NaV channels (mammalian rNaV1.2, rNaV1.3, rNaV1.4, hNaV1.5, rNaV1.6, hNaV1.7, BgNaV from the cockroach Blattella germanica, as well as the auxiliary subunits rβ1, hβ1), and the hCaV3.1 channel in Xenopus oocytes, the linearized plasmids were transcribed using the T7 or SP6 mMESSAGE-mMACHINE transcription kit (Ambion, Carlsbad, CA, USA). The harvesting of stage V–VI oocytes from an anaesthetized female Xenopus laevis frog was described previously and was in compliance with the regulations of the European Union (EU) concerning the welfare of laboratory animals as declared in Directive 2010/63/EU. The use of X. laevis oocytes was approved by the Animal Ethics Committee of the KU Leuven with the licence number P186/2019. […]
(§2) Two-electrode voltage-clamp recordings were performed at room temperature (18–22 °C) using a Geneclamp 500 amplifier (Molecular Devices, Downingtown, PA, USA) controlled by a pClamp data acquisition system (Axon Instruments, Union City, CA, USA). Whole cell currents from oocytes were recorded 1–7 days after injection. […]

[2] = test system: KV11.1 (hERG); test: Two-electrode voltage-clamp on Xenopus oocytes expressing KV11.1 (hERG); format: cell-based; details: human, Xenopus laevis oocytes expressing KV11.1 (hERG), pH 7.4, 8 µM peptide, 18–22 °C, n ≥ 3, read-out: Inhibitory activity on KV11.1 (hERG) current
Excerpt: as §1, §2

[3] = test system: hKV1.3; test: Two-electrode voltage-clamp on Xenopus oocytes expressing KV1.3; format: cell-based, human; details: 8 µM peptide, Xenopus laevis oocytes, 18–22 °C, n ≥ 3
Excerpt: as §1, §2

[4] = molecular target: T1, human insulin receptor isoform B (IR-B) (Homo sapiens, UniProt P06213); test: Competition binding assay with europium-labelled insulin on solubilized, immunocaptured IR-B; details: even at 10^−5 M concentration; 16 h at 4 °C, n ≥ 3
T1 construct: expressed in transfected cells; host or cells: IR-B cells (IGF-IR null mouse fibroblasts overexpressing human IR-B)
Description: (§3) IGF-IR and IR-B were solubilized from cells using lysis buffer (20 mM HEPES, 150 mM NaCl, 1.5 mM MgCl2, 10% (v/v) glycerol, 1% (v/v) Triton X-100, 1 mM EGTA (pH 7.5)) for 1 h at 4 °C, and lysates were centrifuged for 10 min at 3500 rpm. Solubilized IGF-1R or IR-B (100 µL) was used to coat each well of a white Greiner Lumitrac 600 plate previously coated with 24–31 anti-human IGF-1R antibody or 83-7 anti-human IR antibody. […] Wells were washed three times with 20 mM Tris, 150 mM NaCl, 0.1% (v/v) Tween 20, and then DELFIA enhancement solution (100 µL) was added. Time-resolved fluorescence was measured with 340 nm excitation and 612 nm emission filters using a Victor X4, 2030 Multilabel Reader (Perkin Elmer). All assays were repeated at least 3 times with 3 technical replicates each, except for the IlO1_i1 peptide binding IGF-IR, where 2 assays were conducted. Mean IC50 values were calculated using the statistical software package Prism v9.0.0 (GraphPad Software) after curve fitting with a nonlinear regression (one-site) model.

[5] = molecular target: T2, human IGF-1R (Homo sapiens, UniProt P08069); test: Competition binding assay with europium-labelled IGF-I on solubilized, immunocaptured IGF-1R; details: 16 h at 4 °C, n = 2 assays
T2 construct: expressed in transfected cells; host or cells: P6 cells (BALB/c3T3 mouse fibroblasts overexpressing IGF-IR)
Description: as §3

[6] = test system: rNaV1.4; test: Two-electrode voltage-clamp on Xenopus oocytes expressing NaV1.4; format: cell-based, rat; details: 8 µM peptide, Xenopus laevis oocytes, 18–22 °C, n ≥ 3
Excerpt: as §1, §2

[7] = test system: hKV3.1; test: Two-electrode voltage-clamp on Xenopus oocytes expressing KV3.1; format: cell-based, human; details: 8 µM peptide, Xenopus laevis oocytes, 18–22 °C, n ≥ 3
Excerpt: as §1, §2

T1 sequence (P06213 28-758 limits assumed): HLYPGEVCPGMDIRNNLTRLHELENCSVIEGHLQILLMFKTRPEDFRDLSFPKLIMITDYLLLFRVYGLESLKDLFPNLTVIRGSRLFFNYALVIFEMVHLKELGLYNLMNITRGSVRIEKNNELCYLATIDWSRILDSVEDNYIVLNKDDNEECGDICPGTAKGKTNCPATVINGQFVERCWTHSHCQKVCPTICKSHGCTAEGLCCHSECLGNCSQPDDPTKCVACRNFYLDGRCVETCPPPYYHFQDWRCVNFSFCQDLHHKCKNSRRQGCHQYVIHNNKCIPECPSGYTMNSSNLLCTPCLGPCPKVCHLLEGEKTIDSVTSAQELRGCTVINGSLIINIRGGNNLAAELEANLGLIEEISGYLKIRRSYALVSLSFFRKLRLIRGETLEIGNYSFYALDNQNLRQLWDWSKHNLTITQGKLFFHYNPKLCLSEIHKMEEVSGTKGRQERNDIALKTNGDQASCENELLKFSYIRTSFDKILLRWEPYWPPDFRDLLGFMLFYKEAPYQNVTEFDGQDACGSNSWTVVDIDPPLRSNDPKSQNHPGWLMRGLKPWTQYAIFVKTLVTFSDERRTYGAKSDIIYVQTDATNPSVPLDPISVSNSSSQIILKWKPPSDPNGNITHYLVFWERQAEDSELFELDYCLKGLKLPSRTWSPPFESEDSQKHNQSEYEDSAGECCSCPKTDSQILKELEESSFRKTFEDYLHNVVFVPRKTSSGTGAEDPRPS
T1 sequence (P06213 763-1382 partner limits assumed): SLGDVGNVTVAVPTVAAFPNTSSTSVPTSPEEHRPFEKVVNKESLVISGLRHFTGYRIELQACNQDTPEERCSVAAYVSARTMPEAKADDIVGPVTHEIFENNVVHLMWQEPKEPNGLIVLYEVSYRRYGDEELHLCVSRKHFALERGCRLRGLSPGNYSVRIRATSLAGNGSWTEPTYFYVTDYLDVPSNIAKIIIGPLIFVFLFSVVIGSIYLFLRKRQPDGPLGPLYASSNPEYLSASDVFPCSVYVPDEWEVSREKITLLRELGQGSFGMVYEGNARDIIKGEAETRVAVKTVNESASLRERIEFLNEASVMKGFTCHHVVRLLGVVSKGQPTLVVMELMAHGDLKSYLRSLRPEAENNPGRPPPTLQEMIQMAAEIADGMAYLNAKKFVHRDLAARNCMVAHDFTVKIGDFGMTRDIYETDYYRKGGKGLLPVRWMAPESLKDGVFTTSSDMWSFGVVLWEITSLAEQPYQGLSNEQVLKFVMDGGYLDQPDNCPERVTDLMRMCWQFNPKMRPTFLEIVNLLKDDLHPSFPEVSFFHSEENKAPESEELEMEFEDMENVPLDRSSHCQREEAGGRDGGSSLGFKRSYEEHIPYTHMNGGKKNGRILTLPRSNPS
T2 sequence (P08069 31-736 limits assumed): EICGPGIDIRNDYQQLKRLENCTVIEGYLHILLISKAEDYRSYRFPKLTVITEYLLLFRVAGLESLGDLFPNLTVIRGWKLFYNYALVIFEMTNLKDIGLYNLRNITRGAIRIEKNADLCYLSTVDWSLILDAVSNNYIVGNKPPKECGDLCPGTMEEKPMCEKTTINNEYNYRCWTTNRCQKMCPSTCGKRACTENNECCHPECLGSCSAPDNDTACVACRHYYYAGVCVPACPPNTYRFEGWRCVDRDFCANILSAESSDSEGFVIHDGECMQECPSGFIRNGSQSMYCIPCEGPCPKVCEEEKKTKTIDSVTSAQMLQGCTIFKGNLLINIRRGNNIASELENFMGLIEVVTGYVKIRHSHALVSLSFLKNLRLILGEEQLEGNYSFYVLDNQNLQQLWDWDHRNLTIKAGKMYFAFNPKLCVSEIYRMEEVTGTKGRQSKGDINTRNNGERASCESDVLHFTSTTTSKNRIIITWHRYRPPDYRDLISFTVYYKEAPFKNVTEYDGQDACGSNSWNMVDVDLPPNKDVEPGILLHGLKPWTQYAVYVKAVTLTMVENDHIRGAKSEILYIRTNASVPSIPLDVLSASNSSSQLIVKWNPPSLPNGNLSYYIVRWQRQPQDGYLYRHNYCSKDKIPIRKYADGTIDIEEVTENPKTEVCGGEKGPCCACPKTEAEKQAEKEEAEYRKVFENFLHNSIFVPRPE
T2 sequence (P08069 741-1367 partner limits assumed): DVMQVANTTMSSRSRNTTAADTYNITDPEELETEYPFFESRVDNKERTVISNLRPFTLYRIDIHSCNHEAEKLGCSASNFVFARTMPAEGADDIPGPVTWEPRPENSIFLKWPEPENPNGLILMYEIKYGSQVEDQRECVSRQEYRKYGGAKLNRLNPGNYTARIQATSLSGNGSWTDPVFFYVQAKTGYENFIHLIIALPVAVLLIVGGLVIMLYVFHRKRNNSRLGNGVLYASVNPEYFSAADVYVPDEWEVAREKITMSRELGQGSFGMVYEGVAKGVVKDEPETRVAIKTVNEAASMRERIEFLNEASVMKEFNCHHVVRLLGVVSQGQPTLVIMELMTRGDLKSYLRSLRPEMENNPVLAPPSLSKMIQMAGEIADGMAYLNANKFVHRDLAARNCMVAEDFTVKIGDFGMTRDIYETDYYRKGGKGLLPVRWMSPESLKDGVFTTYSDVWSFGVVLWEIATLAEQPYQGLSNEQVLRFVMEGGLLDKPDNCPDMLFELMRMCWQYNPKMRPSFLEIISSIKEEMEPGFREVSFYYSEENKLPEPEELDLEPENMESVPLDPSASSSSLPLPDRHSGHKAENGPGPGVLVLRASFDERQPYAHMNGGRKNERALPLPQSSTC

Substance: I: INESPQTNIDYRICGDQITQKYTELCGNPAAG / II: TDIVEECCAEGCKAEEVKEYCI (disulfide I:14-II:8, I:26-II:21, II:7-II:12) [IlO1_i1]
- Inhibitory activity on KV1.2 current [1]: 3.6 ± 1.9%
- inhibition at 8 µM [2]: 30.5 ± 1.6%
- Inhibitory activity on KV1.3 current [3]: 11.9 ± 0.9%
- Ability to compete with europium-labelled insulin bound to IR-B [4]: unable to compete
- Ability to compete with europium-labelled IGF-I binding to the IGF-1R [5]: did not compete
- Inhibitory activity on NaV 1.4 current [6]: 14.2 ± 2.2%
- Inhibitory activity on KV3.1 current [7]: 12.7 ± 2.6%
